The test system of the assay is HEK293. The experiment in a line: Inhibition of Ca2+ release activated Ca2+ channels in thapsigarin-treated HEK cells. The assay is classed as cell-based. As to conditions: Homo sapiens.

Turning to `CNC(=O)C[C@H]1C(=O)N(C)[C@@H](C)C(=O)OC(C)CCC/C=C/CCC(OC)C/C=C/C=C(\C)C(=O)N[C@H](C(C)C)C(=O)N(C)[C@@H](Cc2ccccc2)C(=O)N(C)[C@@H](C(C)C)C(=O)N(C)[C@@H](C(C)C)C(=O)N2CCC[C@H]2C(=O)N1C` (stereo partly specified), the Activity result is “Dose-dependent effect”.

(Values after ChEMBL document CHEMBL1149904, “Isolation and structure determination of malevamide E, a dolastatin 14 analogue, from the marine cyanobacterium Symploca laete-viridis” (J Nat Prod, 2008).)
